# Counter-ions that a name gives are not always drawn. Like-named read-outs stand apart in the source and are kept apart here.
# Columns and labels:
# [1] = system: NCI-H292 lung cancer cells; experiment: FDA drug screening, complete media vs cholesterol-free media without statin (TABLE 1); type: cell-based, human
# [2] = system: NCI-H292 lung cancer cells; experiment: FDA drug screening, complete media vs cholesterol-free media with simvastatin (TABLE 2); type: cell-based, human
# [3] = NCI-H292 cells, cholesterol-free media without statin
# [4] = complete vs cholesterol-free media, greater than 0 enhanced anti-cancer activity, about 0 neutral, below 0 antagonists
# [5] = NCI-H292 cells, FDA library drug in cholesterol-free media with simvastatin 0.04 μM
# [6] = NCI-H292 cells, FDA library drug in complete media
# [7] = complete media vs cholesterol-free media + simvastatin (0.04 μM), >0 enhanced anti-cancer activity, about 0 neutral, <0 antagonist
# [8] = Complete minus Cholesterol-free, […]
# [9] = NCI-H292 cells, cholesterol-free media with simvastatin 0.04 μM, FDA drug library screen (TABLE 2)
# [10] = NCI-H292 cells, complete media, FDA drug library screen (TABLE 2)
# [11] = complete media minus cholesterol-free media + simvastatin (0.04 μM), […]
# [12] = NCI-H292 cells, cholesterol-free media with simvastatin 0.04 μM, cell growth value in FDA drug screen
# [13] = NCI-H292 cells, complete media, cell growth value in FDA drug screen
# [14] = complete media minus cholesterol-free media + simvastatin, >0 enhanced anti-cancer activity, about 0 neutral, <0 antagonist
# [15] = complete vs cholesterol-free media, […]
# [16] = Complete minus Cholesterol-free, >0 enhanced anti-cancer activity, about 0 neutral, <0 antagonist
# [17] = complete media minus cholesterol-free media + simvastatin (0.04 μM), >0 enhanced anti-cancer activity, about 0 neutral, <0 antagonist
# [18] = NCI-H292 cells, cholesterol-free media without statin, FDA drug library screen
# [19] = NCI-H292 cells, complete media, FDA drug library screen
# [20] = NCI-H292 cells, drug in cholesterol-free media with simvastatin 0.04 μM
# [21] = NCI-H292 cells, drug in complete media
# [22] = complete media vs cholesterol-free media + simvastatin (0.04 μM), […]
# [23] = Complete minus Cholesterol-free, greater than 0 enhanced anti-cancer activity, about 0 neutral, below 0 antagonists
# [24] = NCI-H292 cells in cholesterol-free media without statin
# [25] = NCI-H292 cells in complete media
# [26] = NCI-H292 cells, FDA drug library screen, complete media
# [27] = NCI-H292 cells, FDA drug library screen, cholesterol-free media with simvastatin 0.04 μM
compound,measurement,setting,value
CCN(CC)Cc1cc(Nc2ccnc3cc(Cl)ccc23)ccc1O [Amodiaquine (dihydrochloride)],Cholesterol-free,[1]; [3],1.475
same,Complete,"[1]; NCI-H292 cells, complete media",1.037
same,Difference,[1]; [4],−0.44
same,Cholesterol-free media + simvastatin (0.04 μM),[2]; [5],1.766
same,Complete Media,[2]; [6],1.059
same,Difference,[2]; [7],−0.71
CC(COc1ccccc1)N(CCCl)Cc1ccccc1 (centres unmarked) [Phenoxybenzamine (hydrochloride)],Difference,[1]; [8],−0.20
same,Cholesterol-free,[1]; [3],0.9421
same,Complete,"[1]; NCI-H292 cells, complete media",0.7375
same,Cholesterol-free media + simvastatin (0.04 μM),[2]; [9],0.9012
same,Complete Media,[2]; [10],0.8799
same,Difference,[2]; [11],−0.02
O=C(Oc1ccccc1C(=O)O)c1ccccc1O [Salsalate],Cholesterol-free,[1]; [3],1.58
same,Complete,"[1]; NCI-H292 cells, complete media",1.132
same,Difference,[1]; [4],−0.45
same,Cholesterol-free media + simvastatin (0.04 μM),[2]; [12],0.8804
same,Complete Media,[2]; [13],0.9361
same,Difference,[2]; [14],0.06
COc1ccc2c3c1O[C@H]1C[C@@H](O)C=C[C@@]31CCN(C)C2 [Galanthamine],Cholesterol-free,[1]; [3],1.164
same,Complete,"[1]; NCI-H292 cells, complete media",0.829
same,Difference,[1]; [15],−0.33
same,Cholesterol-free media + simvastatin (0.04 μM),[2]; [9],1.051
same,Complete Media,[2]; [10],1.046
same,Difference,[2]; [11],−0.01
CCS(=O)(=O)N1CC(CC#N)(n2cc(-c3ncnc4[nH]ccc34)cn2)C1 [Baricitinib],Difference,[1]; [16],−0.22
same,Cholesterol-free,[1]; [3],0.7863
same,Complete,"[1]; NCI-H292 cells, complete media",0.5701
same,Cholesterol-free media + simvastatin (0.04 μM),[2]; [5],1.286
same,Complete Media,[2]; [6],0.9674
same,Difference,[2]; [7],−0.32
COc1cccc(N2CCN(C3=Nc4c(F)cccc4[C@H](CC(=O)O)N3c3cc(C(F)(F)F)ccc3OC)CC2)c1 [Letermovir],Cholesterol-free,[1]; [3],1.5
same,Complete,"[1]; NCI-H292 cells, complete media",1.08
same,Difference,[1]; [4],−0.42
same,Cholesterol-free media + simvastatin (0.04 μM),[2]; [9],1.527
same,Complete Media,[2]; [10],1.457
same,Difference,[2]; [17],−0.07
CC(C)N(CC[C@H](c1ccccc1)c1cc(CO)ccc1O)C(C)C [Desfesoterodine],Cholesterol-free,[1]; [18],0.7501
same,Complete,[1]; [19],1.3
same,Difference,[1]; [15],0.55
same,Cholesterol-free media + simvastatin (0.04 μM),[2]; [20],1.01
same,Complete Media,[2]; [21],0.8395
same,Difference,[2]; [22],−0.17
Dimenhydrinate,Cholesterol-free,[1]; [3],1.237
same,Complete,"[1]; NCI-H292 cells, complete media",0.8523
same,Difference,[1]; [4],−0.39
same,Cholesterol-free media + simvastatin (0.04 μM),[2]; [12],0.8945
same,Complete Media,[2]; [13],0.9753
same,Difference,[2]; [14],0.08
Cc1ccc2c(c1)c1c(n2CCc2ccc(C)nc2)CCN(C)C1 [Latrepirdine (dihydrochloride)],Difference,[1]; [23],−0.58
same,Cholesterol-free,[1]; [24],1.66
same,Complete,[1]; [25],1.083
same,Cholesterol-free media + simvastatin (0.04 μM),[2]; [12],1.036
same,Complete Media,[2]; [13],1.07
same,Difference,[2]; [14],0.03
CCOC(=O)[C@H](C)C[C@@H](Cc1ccc(-c2ccccc2)cc1)NC(=O)CCC(=O)O [Sacubitril],Difference,[1]; [16],−0.30
same,Cholesterol-free,[1]; [3],1.009
same,Complete,"[1]; NCI-H292 cells, complete media",0.7049
same,Cholesterol-free media + simvastatin (0.04 μM),[2]; [12],1.492
same,Complete Media,[2]; [13],1.622
same,Difference,[2]; [14],0.13
CC(=O)OCC(=O)[C@@]1(O)CC[C@H]2[C@@H]3CCC4=CC(=O)CC[C@]4(C)[C@@]3(F)[C@@H](O)C[C@@]21C [Fludrocortisone acetate],Difference,[1]; [16],−0.30
same,Cholesterol-free,[1]; [3],0.7353
same,Complete,"[1]; NCI-H292 cells, complete media",0.437
same,Cholesterol-free media + simvastatin (0.04 μM),[2]; [12],0.45
same,Complete Media,[2]; [13],0.5624
same,Difference,[2]; [14],0.11
CC[C@H](C)[C@H]1O[C@]2(CC[C@@H]1C)C[C@@H]1C[C@@H](C/C=C(\C)[C@@H](O[C@H]3C[C@H](OC)[C@@H](O[C@H]4C[C@H](OC)[C@@H](O)[C@H](C)O4)[C@H](C)O3)[C@@H](C)/C=C/C=C3\CO[C@@H]4[C@H](O)C(C)=C[C@@H](C(=O)O1)[C@]34O)O2 [Ivermectin],Difference,[1]; [8],0.00
same,Cholesterol-free,[1]; [18],0.1454
same,Complete,[1]; [19],0.1503
same,Cholesterol-free media + simvastatin (0.04 μM),[2]; [5],1.074
same,Complete Media,[2]; [6],0.4557
same,Difference,[2]; [22],−0.62
Gentamicin (sulfate),Difference,[1]; [16],0.07
same,Cholesterol-free,[1]; [18],0.9104
same,Complete,[1]; [19],0.9799
same,Cholesterol-free media + simvastatin (0.04 μM),[2]; [12],0.8679
same,Complete Media,[2]; [13],0.9575
same,Difference,[2]; [14],0.09
CCN(CC)CCOC(=O)C(O)(c1ccccc1)c1ccccc1 [Benactyzine hydrochloride],Difference,[1]; [8],−0.51
same,Cholesterol-free,[1]; [24],1.39
same,Complete,[1]; [25],0.878
same,Cholesterol-free media + simvastatin (0.04 μM),[2]; [20],1.159
same,Complete Media,[2]; [21],0.961
same,Difference,[2]; [22],−0.20
Cc1nc(Nc2ncc(C(=O)Nc3c(C)cccc3Cl)s2)cc(N2CCN(CCO)CC2)n1 [Dasatinib (hydrochloride)],Difference,"[1]; Complete minus Cholesterol-free, greater than 0 enhanced anti-cancer activity, about 0 neutral, below 0 antagonist",−0.10
same,Cholesterol-free,"[1]; NCI-H292 cells, FDA drug library screen, cholesterol-free media without statin",0.3831
same,Complete,[1]; [26],0.2841
same,Cholesterol-free media + simvastatin (0.04 μM),[2]; [9],0.2818
same,Complete Media,[2]; [10],0.268
same,Difference,[2]; [17],−0.01
COc1cc2nc(N(C)CCCNC(=O)C3CCCO3)nc(N)c2cc1OC (centres unmarked) [Alfuzosin (hydrochloride)],Difference,[1]; [16],−0.22
same,Cholesterol-free,[1]; [3],1.203
same,Complete,"[1]; NCI-H292 cells, complete media",0.9827
same,Cholesterol-free media + simvastatin (0.04 μM),[2]; [27],0.7758
same,Complete Media,[2]; [26],1.007
same,Difference,[2]; [14],0.23
O=C(CCCN1CCN(c2ccccn2)CC1)c1ccc(F)cc1 [Azaperone],Difference,[1]; [16],−0.01
same,Cholesterol-free,[1]; [18],0.9307
same,Complete,[1]; [19],0.9163
same,Cholesterol-free media + simvastatin (0.04 μM),[2]; [9],1.007
same,Complete Media,[2]; [10],0.9983
same,Difference,[2]; [17],−0.01
O=C(O)Cc1cc(I)c(Oc2ccc(O)c(I)c2)c(I)c1 [Tiratricol],Difference,[1]; [23],−0.55
same,Cholesterol-free,[1]; [24],1.869
same,Complete,[1]; [25],1.318
same,Cholesterol-free media + simvastatin (0.04 μM),[2]; [27],0.7173
same,Difference,[2]; [14],0.43
O=c1[nH]c2ccccc2n1C1CCN(CCCC(c2ccc(F)cc2)c2ccc(F)cc2)CC1 [Pimozide],Cholesterol-free,[1]; [3],1.1
same,Complete,"[1]; NCI-H292 cells, complete media",0.6361
same,Difference,[1]; [4],−0.46
same,Cholesterol-free media + simvastatin (0.04 μM),[2]; [27],0.8031
same,Complete Media,[2]; [26],0.9681
same,Difference,[2]; [14],0.16
CCCCCCCCOc1ccccc1C(=O)Nc1ccc(C(=O)OCC[N+](C)(CC)CC)cc1.[Br-] [Otilonium (bromide)],Cholesterol-free,[1],1.132
same,Complete,[1],0.8071
same,Difference,[1],−0.32
same,Cholesterol-free media + simvastatin (0.04 μM),[2],0.9764
same,Complete Media,[2],1.024
same,Difference,[2],0.05
O=C(O)CCCN1CCC(O[C@@H](c2ccc(Cl)cc2)c2ccccn2)CC1 [Bepotastine (besilate)],Cholesterol-free,[1]; [3],1.237
same,Complete,"[1]; NCI-H292 cells, complete media",0.8985
same,Difference,[1]; [4],−0.34
same,Cholesterol-free media + simvastatin (0.04 μM),[2]; [5],1.245
same,Complete Media,[2]; [6],0.8639
same,Difference,[2]; [7],−0.38
Nc1nc(N)nc(-c2cc(Cl)ccc2Cl)n1 [Irsogladine],Difference,[1]; [16],−0.28
same,Cholesterol-free,[1]; [3],1.27
same,Complete,"[1]; NCI-H292 cells, complete media",0.9941
same,Cholesterol-free media + simvastatin (0.04 μM),[2]; [20],1.185
same,Complete Media,[2]; [21],0.995
same,Difference,[2]; [7],−0.19
CC(=O)O[C@]1(C(C)=O)CC[C@H]2[C@@H]3C[C@H](C)C4=CC(=O)CC[C@]4(C)[C@H]3CC[C@@]21C [Medroxyprogesterone acetate],Cholesterol-free,[1]; [3],1.058
same,Complete,"[1]; NCI-H292 cells, complete media",0.6058
same,Difference,[1]; [4],−0.45
same,Cholesterol-free media + simvastatin (0.04 μM),[2]; [27],1.001
same,Complete Media,[2]; [26],0.9291
same,Difference,[2]; [7],−0.07
